Results reported in publication PMC9959048, “Lipidation of Naturally Occurring α-Helical Antimicrobial Peptides as a Promising Strategy for Drug Design” (International Journal of Molecular Sciences, 2023).
Converted amounts (≈) assume the structure as drawn. Like-named read-outs stand apart in the source and are kept apart here. Residues, ends and D or L forms follow the SMILES beside them. *: point of attachment. Myristoyl = CCCCCCCCCCCCCC(=O)*; Lauroyl = CCCCCCCCCCCC(=O)*; Decanoyl = CCCCCCCCCC(=O)*

Key:
[1] = test system: C. krusei CCM8271; type: cell-based, Candida krusei
Protocol: (§1) The evaluation of the antimicrobial activity of the synthesized lipopeptides was performed against the following reference bacterial and fungal strains: Staphylococcus aureus PCM 1650, Staphylococcus aureus PCM 2054, Staphylococcus epidermidis PCM 521, Staphylococcus epidermidis PCM 2118, Escherichia coli PCM 2057, Candida albicans PCM 2566, Candida glabrata CCM 8270, Candida krusei CCM 8271, Candida parapsilosis CCM 8260.
(§2) For the initial cultivation of the bacteria and fungi, Luria-Bertani broth (LB, Biomaxima, Lublin, Poland) and Sabouraud Dextrose broth (SB, Biomaxima, Lublin, Poland) were used, respectively. Antimicrobial properties of the compounds were analyzed through the determination of MIC (minimal inhibitory concentrations) by my means of the serial micro-dilution technique according to the guidelines of Clinical & Laboratory Standard Institute (CLSI) established for aerobic bacteria and yeasts.
(§3) According to the procedures, Mueller–Hinton broth (MHB) was used as the working medium for the analysis of the bacterial susceptibility, while RPMI-1640 (with L-glutamine, without sodium bicarbonate) growth medium buffered with MOPS (morpholinepropanesulfonic acid) and supplemented with 2% glucose was used for the experiments with the fungi.
(§4) The experiments were carried out for 24 h at 37 and 35 °C for the bacteria and fungi, respectively. Then, the absorbance was measured at 600 nm for each well of the 96-well plate using a microplate reader (Sunrise TM, Tecan Trading AG, Männedorf, Switzerland). Based on the obtained results, the degree of inhibition of the growth of microorganisms (expressed in %) in the presence of the tested compounds range was determined with respect to the control probes. Inoculated wells without peptide were treated as a positive control (100% growth), and the wells containing working medium only were defined as a negative control (0% growth). All measurements were repeated in triplicate.

[2] = test system: C. parapsilosis CCM 8260; type: cell-based, Candida parapsilosis
Protocol: as §1, §2, §3, §4

[3] = test system: C. albicans PCM2566; type: cell-based, Candida albicans
Protocol: as §1, §2, §3, §4

[4] = test system: C. glabrata CCM8270; type: cell-based, Candida glabrata
Protocol: as §1, §2, §3, §4

[5] = test system: S. aureus PCM2054; type: cell-based, Staphylococcus aureus
Protocol: as §1, §2, §3, §4

[6] = test system: S. epidermidis PCM521; type: cell-based, Staphylococcus epidermidis
Protocol: as §1, §2, §3, §4

[7] = test system: S. epidermidis PCM2118; type: cell-based, Staphylococcus epidermidis
Protocol: as §1, §2, §3, §4

[8] = test system: E. coli PCM2057; type: cell-based, Escherichia coli
Protocol: as §1, §2, §3, §4

[9] = test system: S. aureus PCM1650; type: cell-based, Staphylococcus aureus; settings: PCM1650, 24 h
Protocol: as §1, §2, §3, §4

[10] = RPMI-1640 with MOPS and 2% glucose, inoculum 5 × 10^3 CFU/mL, 24 h, 35 °C, absorbance 600 nm, triplicate
[11] = Mueller–Hinton broth, inoculum 5 × 10^5 CFU/mL, 24 h, 37 °C, absorbance 600 nm, triplicate

CCCCCCCCCC(=O)N[C@H](C(=O)N[C@@H](CCCCN)C(=O)N[C@@H](CCCCN)C(=O)N[C@H](C(=O)N[C@@H](CC(C)C)C(=O)N[C@@H](CO)C(=O)N[C@@H](CCCCN)C(=O)N[C@H](C(=O)N[C@@H](CCCCN)C(=O)N[C@@H](CCCCN)C(=O)N[C@@H](CC(C)C)C(=O)N[C@@H](CC(C)C)C(=O)N[C@@H](CCCCN)C(N)=O)[C@@H](C)CC)[C@@H](C)CC)[C@@H](C)CC [C10-LK6] (Decanoyl-IKKILSKIKKLLK-NH2)
MIC, C. krusei CCM8271 ([1]; CCM8271, 24 h): 6.25 µg/mL (≈ 3.66 µM)
MIC, C. parapsilosis CCM 8260 ([2]; CCM 8260, 24 h): 6.25 µg/mL (≈ 3.66 µM)
MIC, C. albicans PCM2566 ([3]; PCM2566, 24 h): 6.25 µg/mL (≈ 3.66 µM)
MIC, C. glabrata CCM8270 ([4]; CCM8270, 24 h): 6.25 µg/mL (≈ 3.66 µM)
MIC, S. aureus PCM2054 ([5]; PCM2054, 24 h): 50 µg/mL (≈ 29.3 µM)
MIC, S. epidermidis PCM521 ([6]; PCM521, 24 h): 6.25 µg/mL (≈ 3.66 µM)
MIC, S. epidermidis PCM2118 ([7]; PCM2118, 24 h): 6.25 µg/mL (≈ 3.66 µM)
MIC, E. coli PCM2057 ([8]; PCM2057, 24 h): >50 µg/mL

CCCCCCCCCCCC(=O)N[C@@H](CCCCN)C(=O)N[C@@H](CCCNC(=N)N)C(=O)N[C@@H](Cc1ccccc1)C(=O)N[C@@H](CCCCN)C(=O)N[C@@H](CCCCN)C(=O)N[C@@H](Cc1ccccc1)C(=O)N[C@@H](Cc1ccccc1)C(=O)N[C@@H](CCCCN)C(=O)N[C@@H](CCCCN)C(=O)N[C@@H](CC(C)C)C(=O)N[C@@H](CCCCN)C(N)=O [C12-ATRA-1] (Lauroyl-KRFKKFFKKLK-NH2)
MIC, C. krusei CCM8271 [1, 10]: 2.5 µg/mL (≈ 1.49 µM)
MIC, C. parapsilosis CCM 8260 [2, 10]: 12.5 µg/mL (≈ 7.44 µM)
MIC, C. albicans PCM2566 [3, 10]: 2.5 µg/mL (≈ 1.49 µM)
MIC, C. glabrata CCM8270 [4, 10]: 6.25 µg/mL (≈ 3.72 µM)
MIC, S. aureus PCM2054 [5, 11]: 3.9 µg/mL (≈ 2.32 µM)
MIC, S. epidermidis PCM521 [6, 11]: 3.13 µg/mL (≈ 1.86 µM)
MIC, S. epidermidis PCM2118 [7, 11]: 3.13 µg/mL (≈ 1.86 µM)
MIC, E. coli PCM2057 [8, 11]: 31.25 µg/mL (≈ 18.6 µM)

CCCCCCCCCCCC(=O)N[C@H](C(=O)N[C@@H](CCCCN)C(=O)N[C@@H](CCCCN)C(=O)N[C@H](C(=O)N[C@@H](CC(C)C)C(=O)N[C@@H](CO)C(=O)N[C@@H](CCCCN)C(=O)N[C@H](C(=O)N[C@@H](CCCCN)C(=O)N[C@@H](CCCCN)C(=O)N[C@@H](CC(C)C)C(=O)N[C@@H](CC(C)C)C(=O)N[C@@H](CCCCN)C(N)=O)[C@@H](C)CC)[C@@H](C)CC)[C@@H](C)CC [C12-LK6] (Lauroyl-IKKILSKIKKLLK-NH2)
MIC, C. krusei CCM8271 ([1]; CCM8271, 24 h): 6.25 µg/mL (≈ 3.6 µM)
MIC, C. parapsilosis CCM 8260 ([2]; CCM 8260, 24 h): 6.25 µg/mL (≈ 3.6 µM)
MIC, C. albicans PCM2566 ([3]; PCM2566, 24 h): 6.25 µg/mL (≈ 3.6 µM)
MIC, C. glabrata CCM8270 ([4]; CCM8270, 24 h): 3.13 µg/mL (≈ 1.8 µM)
MIC, S. aureus PCM2054 ([5]; PCM2054, 24 h): 50 µg/mL (≈ 28.8 µM)
MIC, S. aureus PCM1650 [9]: 25 µg/mL (≈ 14.4 µM)
MIC, S. epidermidis PCM521 ([6]; PCM521, 24 h): 25 µg/mL (≈ 14.4 µM)
MIC, S. epidermidis PCM2118 ([7]; PCM2118, 24 h): 6.25 µg/mL (≈ 3.6 µM)
MIC, E. coli PCM2057 ([8]; PCM2057, 24 h): >50 µg/mL

CCCCCCCCCCCCCC(=O)N[C@H](C(=O)N[C@@H](CCCCN)C(=O)N[C@@H](CCCCN)C(=O)N[C@H](C(=O)N[C@@H](CC(C)C)C(=O)N[C@@H](CO)C(=O)N[C@@H](CCCCN)C(=O)N[C@H](C(=O)N[C@@H](CCCCN)C(=O)N[C@@H](CCCCN)C(=O)N[C@@H](CC(C)C)C(=O)N[C@@H](CC(C)C)C(=O)N[C@@H](CCCCN)C(N)=O)[C@@H](C)CC)[C@@H](C)CC)[C@@H](C)CC [C14-LK6] (Myristoyl-IKKILSKIKKLLK-NH2)
MIC, C. krusei CCM8271 ([1]; CCM8271, 24 h): 6.25 µg/mL (≈ 3.55 µM)
MIC, C. parapsilosis CCM 8260 ([2]; CCM 8260, 24 h): 6.25 µg/mL (≈ 3.55 µM)
MIC, C. albicans PCM2566 ([3]; PCM2566, 24 h): 6.25 µg/mL (≈ 3.55 µM)
MIC, C. glabrata CCM8270 ([4]; CCM8270, 24 h): 12.5 µg/mL (≈ 7.09 µM)
MIC, S. aureus PCM2054 ([5]; PCM2054, 24 h): 50 µg/mL (≈ 28.4 µM)
MIC, S. epidermidis PCM521 ([6]; PCM521, 24 h): 25 µg/mL (≈ 14.2 µM)
MIC, S. epidermidis PCM2118 ([7]; PCM2118, 24 h): 25 µg/mL (≈ 14.2 µM)
MIC, E. coli PCM2057 ([8]; PCM2057, 24 h): >50 µg/mL
